# In patent US20230241073A1, “PHARMACEUTICAL COMPOSITION FOR PREVENTING OR TREATING NON-SMALL CELL LUNG CANCER ASSOCIATED WITH RON MUTANTATION, AND METHOD USING SAME” (WELLMARKER BIO CO., LTD., priority 2020, published 2023):
# Legend:
# [1] = system: NCI-H460 (mRONΔ165) non-small cell lung cancer cell line transplanted mouse model; test: Tumor growth inhibition in NCI-H460 transplanted animal model; format: in vivo; settings: NCI-H460 xenograft, 50 mg/kg, once a day for 2 weeks
# Description: (§1) It was confirmed whether tumor growth was inhibited by administering Example 1 (WM-S1-030) at a dose of 50 mpk to a mouse model transplanted with NCI-H460, which is a non-small cell lung cancer cell line of a mutation RONΔ165 type. Specifically, 5-week-old female BALB/c-nude mice were purchased and acclimatized for 1 week. Thereafter, NCI-H460 (2×10^6 cells/mouse), a non-small cell lung cancer cell line of a mutation RONΔ165 type, was diluted in PBS and Matrigel, and 200 μL was injected subcutaneously into the right dorsal side of the mouse. When the size of the tumor reached about 100 mm^3, the negative control (excipient) and Example 1 were orally administered. In this case, positive control 1 (BMS-777607) was administered at a dose of 50 mpk. The drug was administered once a day for 2 weeks, and the tumor size and body weight were measured twice a week. After the drug administration was completed, the mice were euthanized, the tumor was extracted, and the weight was measured.
# [2] = system: NCI-H1944 non-small cell lung cancer cell line of a mutation RONΔ155 type; test: MTS assay, cell growth inhibitory ability, NCI-H1944; format: cell-based; settings: Homo sapiens; NCI-H1944, RON mutation Δ155, 72 hours
# Description: (§2) In order to compare and confirm the cell growth inhibitory ability of Examples 1 (WM-S1-030) to 5, positive control 1 (BMS-777607) and positive control 2 (AMG-510) in four non-small cell lung cancer cell lines of a mutation RONΔ155 type (Calu-6, A549, NCI-H358, NCI-H1944), MTS assay was carried out.
# (§3) For MTS assay, 1,000 cells of each non-small cell lung cancer cell line per well were seeded in a 96-well-plate, and 24 hours later, treated with the compounds of Examples 1 to 5, positive control 1 and positive control 2 at various concentrations ([…]) in 100 μL of 10% FBS-RPMI medium (Welgene) per each well. Thereafter, the cells were cultured for 72 hours, and then 20 μL of MTS solution (Promega) was added and cultured for 2 hours, and then absorbance was measured at 490 nm. The cytotoxicity was analyzed by deriving the IC50 for the compounds of Examples 1 to 5, positive control 1 and positive control 2 using GraphPad Prism™ 5.
# [3] = system: A549 non-small cell lung cancer cell line of a mutation RONΔ155 type; test: MTS assay, cell growth inhibitory ability, A549; format: cell-based; settings: Homo sapiens; A549, RON mutation Δ155, 72 hours
# Description: as §2, §3
# [4] = system: NCI-H358 (mRONΔ155) non-small cell lung cancer cell line transplanted mouse model; test: Tumor growth inhibition in NCI-H358 transplanted animal model; format: in vivo; settings: NCI-H358 xenograft, orally once a day for 38 days
# Description: as §1, with “3 mpk, 10 mpk and 30” for “50”, “NCI-H358,” for “NCI-H460,”, “RONΔ155” for “RONΔ165”, “NCI-H358 (5×10^6” for “NCI-H460 (2×10^6”, “administered.” for “administered. In this case, positive control 1 (BMS-777607) was administered at a dose of 50 mpk.”, “38 days,” for “2 weeks,”
# [5] = system: A549 (mRONΔ155) non-small cell lung cancer cell line transplanted mouse model; test: Tumor growth inhibition in A549 transplanted animal model; format: in vivo; settings: A549 xenograft, 50 mg/kg, orally once a day for 3 weeks
# Description: It was confirmed whether tumor growth was inhibited by administering Example 1 (WM-S1-030) at a dose of 50 mpk to a mouse model transplanted with A549, which is a non-small cell lung cancer cell line of a mutation RONΔ155 type. Specifically, 5-week-old female BALB/c-nude mice were purchased and acclimatized for 1 week. Thereafter, A549 (5×10^6 cells/mouse), a non-small cell lung cancer cell line of a mutation RONΔ155 type, was diluted in PBS (phosphate buffered saline), and 100 μL was injected subcutaneously into the right dorsal side of the mouse. When the size of the tumor reached about 100 mm^3, the negative control (excipient) and Example 1 were orally administered. The drug was administered once a day for 3 weeks, and the tumor size and body weight were measured twice a week. After the drug administration was completed, the mice were euthanized, the tumor was extracted, and the weight was measured.
# [6] = system: NCI-H358 non-small cell lung cancer cell line of a mutation RONΔ155 type; test: MTS assay, cell growth inhibitory ability, NCI-H358; format: cell-based; settings: Homo sapiens; NCI-H358, RON mutation Δ155, 72 hours
# Description: as §2, §3
# [7] = system: Calu-6 non-small cell lung cancer cell line of a mutation RONΔ155 type; test: MTS assay, cell growth inhibitory ability, Calu-6; format: cell-based; settings: Homo sapiens; Calu-6, RON mutation Δ155, 72 hours
# Description: as §2, §3
# [8] = system: pTyr-mRON, cleaved caspase 3, cyclin D1 in NCI-H358 (mRONΔ155) tumor; test: Protein expression change by immunochemical staining of tumor tissue, NCI-H358 transplanted animal model; format: in vivo, mouse; settings: 3 mpk, 10 mpk, 30 mpk, FIG. 4
# Description: Example 1 (WM-S1-030) was administered at each concentration (3 mpk, 10 mpk, 30 mpk) to a mouse model transplanted with NCI-H358, which is a non-small cell lung cancer cell line of a mutation RONΔ155 type, and then the tumor was extracted, and the expression changes of the proteins were analyzed by immunochemical staining.
# (§4) Specifically, paraffin slides were prepared using tissues isolated from the sacrificed mice. The tissue sections were deparaffinized and rehydrated, immersed in the target recovery buffer 1×(ScyTek Laboratories, Cat #CBB999) and heated for 15 minutes to perform an antigen recovery process. After the reaction, the tissue sections were washed in Tris buffered saline-0.05% Tween 20 (TBS-T)(T&I, BTT-9310) for 5 minutes, and then the reaction was performed with a non-specific antibody response blocking reagent (vector, SP-5035) for 1 hour.
# (§5) The tissue sections were cultured at 4° C. overnight with mRON (Abcam, ab52927, 1:50), pTyr-mRON (Mybioscience, MBS462024, 1:100), cleaved caspase 3 (Asp175)(R&D Systems, MAB835, 1:50), and cyclin D1 (cyclin D1 (SP4), #Z2027RS, 1:100) and then washed with TBS-T for 5 minutes, and then endogenous peroxidase activity was blocked using a peroxidase blocking reagent (Cellmarque, 925B-05). Thereafter, the tissue sections were washed with TBS-T for 5 minutes and then incubated with a rabbit secondary antibody (vector, PK-6101) at room temperature for 1 hour. The tissue sections were washed with TBS-T for 5 minutes and then colored with diaminobenzidine (cat #SK-4100). In order to stain the nuclei of the tissues, they were stained with hematoxylin (ScyTek Laboratories, HMM999) for 1 minute, dehydrated, and then encapsulated.
# [9] = system: pTyr-mRON, cleaved caspase 3, cyclin D1 in NCI-H460 (mRONΔ165) tumor; test: Protein expression change by immunochemical staining of tumor tissue, NCI-H460 transplanted animal model; format: in vivo, mouse; settings: 30 mpk, 50 mpk, FIG. 6
# Description: Example 1 (WM-S1-030) was administered at each concentration (30 mpk, 50 mpk) and positive control 1 was administered at a dose of 50 mpk to a mouse model transplanted with NCI-H460, which is a non-small cell lung cancer cell line of a mutation RONΔ165 type, and then the tumor was extracted, and the expression changes of the proteins were analyzed by immunochemical staining.
# as §4
# as §5, with “1:50),” for “1:50), and”
smiles,measurement,setting,value
"CCOc1ccn(-c2ccc(F)cc2)c(=O)c1C(=O)Nc1ccc(Oc2ccnc3cc(-c4ccc(CN5CCOCC5)cn4)sc23)c(F)c1.Cl [Example 1, 4-ethoxy-N-[3-fluoro-4-({2-[5-(morpholinomethyl)pyridin-2-yl]thieno[3,2-b]pyridin-7-yl}oxy)phenyl]-1-(4-fluorophenyl)-2-oxo-1,2-dihydropyridine-3-carboxamide hydrochloride]","Tumor growth inhibition rate (TGI, %)",[1],69.7 ± 5.4%
same,IC50,[2],1620 nM
same,IC50,[3],2020 nM
same,"Tumor growth inhibition rate (TGI, %)",[4]; 3 mg/kg,12.3 ± 13.8%
same,"Tumor growth inhibition rate (TGI, %)",[4]; 10 mg/kg,64.5 ± 6.2%
same,"Tumor growth inhibition rate (TGI, %)",[4]; 30 mg/kg,91.0 ± 2.3%
same,"Tumor growth inhibition rate (TGI, %)",[5],58.9 ± 3.8%
same,IC50,[6],1270 nM
same,IC50,[7],720 nM
same,expression of cleaved caspase 3,[8],induced
same,"expression of cyclin D1, a PD marker",[8],decreased
same,expression of pTyr-mRON,[8],decreased
same,expression of cleaved caspase 3,[9],induced
same,"expression of cyclin D1, a PD marker",[9],decreased
same,expression of pTyr-mRON,[9],decreased
